Results: patent US7863241B2, “Compositions for treatment and prevention of pulmonary conditions” (The Scripps Research Institute, priority 2002, dated 2011)
“Also recorded” adds a separate entry of the source.

Assays:
Phospholipase A2 (PLA2) = settings: 30 min incubation, lavage fluid of rabbit 6015, increasing amounts of inhibitor
Experimental: Terminal lavage fluid was collected from rabbits experiencing pulmonary injury initiated by the intratracheal administration of partially purified antibodies directed against BSA (anti-BSA antibodies). Palmitoyl, oleoyl phosphotidylglycerol (POPG, Avanti Polar Lipids) was added to the lavage fluid as a substrate for detecting PLA2 activity in the lavage fluid. Prior to addition of the POPG substrate, the mixture was adjusted to a final concentration of 10 mM CaCl2, 100 mM KCl and 25 mM Tris-Cl, pH 8.5. This mixture was incubated at 37° C. Aliquots were removed over time and the amount of oleic acid released from the POPG substrate was measured by high pressure liquid chromatography (HPLC). The amount of oleic acid released was quantified from the height of the peak at 4.59 min elution time from a C-18 HPLC column, as measured by the absorbance at 207 nm.
BSA and anti-BSA antibodies were administered to rabbit 6015 and lavage fluids were obtained from rabbit 6015 as described in the previous Example. […] This mixture was incubated for 15 min. at 37° C. before addition of POPG substrate. PLA2 activity was measured using the height of the eluted oleic acid HPLC peak, as described in previous Examples.

[1] = molecular target: T1, human neutrophil elastase (HNE) (Homo sapiens, UniProt P08246); test: Colorimetric assay of human neutrophil elastase inhibition; assay type: biochemical
T1 sequence (P08246 30-267): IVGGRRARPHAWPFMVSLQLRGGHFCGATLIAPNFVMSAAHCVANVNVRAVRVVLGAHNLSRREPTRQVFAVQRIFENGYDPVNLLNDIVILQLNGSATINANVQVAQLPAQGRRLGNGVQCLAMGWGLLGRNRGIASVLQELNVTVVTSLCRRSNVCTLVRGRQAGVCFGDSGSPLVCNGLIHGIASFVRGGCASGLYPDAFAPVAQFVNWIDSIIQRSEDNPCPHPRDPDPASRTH
Experimental: A peptide having the following sequence MeO-Suc-Ala-Ala-Pro-Val-pNA (SEQ ID NO:24) was used as an elastase substrate. One hundred (100) μL of a 0.425 mM solution of the SEQ ID NO:24 peptide substrate was placed in a series of microtiter plate wells. Varying amounts of human neutrophil elastase (HNE) were added to the microtiter plate wells. The optical density at 410 nm (OD410) was used to measure elastase activity, and the optical densities observed were plotted versus the amounts of HNE added to generate a standard curve.
To test the ability of a serine elastase inhibitor to inhibit human neutrophil elastase (HNE), a standard amount of 0.125 μg HNE was mixed with increasing amounts of a serine elastase inhibitor before addition of the elastase substrate described in Example 3.
0.02 μg of human neutrophil elastase (HNE), was incubated with 2 mg/ml of Model surfactant mixture, 100 μg/ml of a serine elastase inhibitor, or both Model surfactant mixture and the serine elastase inhibitor together. The HNE activity remaining was assayed using the calorimetric assay described above. The result is represented graphically in FIG. 8.

[2] = tested on: elastase activity in rabbit BAL fluids; test: Elastase activity in rabbit BAL fluids after addition of serine elastase inhibitor; assay type: biochemical; settings: 100 μg/ml inhibitor added to BAL fluids of six anti-BSA/BSA treated rabbits
Experimental: Six rabbits were treated with 3 mg anti-BSA/kg (rabbits 6098 and 6099) or 5 mg anti-BSA/kg (rabbits 6100-6103) was instilled intratracheally and 10 mg of BSA was given intravenously (6098-6101) to induce respiratory distress. Bronchoalveolar lavage (BAL) fluids were taken from the lungs of these rabbits six hours after the treatment and a colorimetric assay of elastase activity was performed on these BAL fluids. Elastase activity is expressed as the concentration of HNE that gives a corresponding OD at 410 nm. Additionally, the same assay was performed after the addition of 100 μg/ml of a serine elastase inhibitor to the BAL fluids.

[3] = tested on: rabbits injured with LPS and PMA; test: LPS/PMA-induced pulmonary injury in rabbits (ARDS Rabbit Model), terminal lavage analysis; assay type: in vivo
Experimental: The effects of Model surfactant mixture, the serine elastase inhibitor, and the combination of the two on pulmonary inflammation were evaluated on an ARDS Rabbit Model. These experiments are described in details in Examples 8 to 12. Twenty (20) rabbits were divided into five groups for this study. Pulmonary inflammation was induced in Groups 1-4 rabbits from stimulation by lavaging with bacterial lipopolysaccharide (LPS) and, 3 hours later, with phorbol myristate acetate (PMA). Additionally, as treatment, Group 2 rabbits received Model surfactant mixture, Group 3 rabbits received the serine elastase inhibitor, and Group 4 animals received both Model surfactant mixture and the serine elastase inhibitor. Group 5 rabbits were normal rabbits and were used as control. The animals were sacrificed at six (6) hr., the right lower lobe was lavaged three times and the lavage fluids were pooled (terminal lavage) for each animal. The level of injury and the effect of the treatments were measured by the amount of basement membrane protein fragments and red blood cells found in terminal lavage fluids.
LPS: Minn (List Biological). 5 mg vial. Animals were treated by quantitative lavage leaving 120 μg/kg in 8 ml/kg.
PMA: (Sigma) diluted in saline or Model surfactant mixture to 5 μg/mL Used 20 ml/kg/rabbit for lavage, leaving 20% of the dosage in the animal.
Model surfactant mixture: (Discovery Labs) 10 mg/ml. Use 20 ml/kg/rabbit for lavage, leaving 20% of the dosage in the animal.
Serine Elastase Inhibitor. Elafin (Astra-Zeneca) 3 mg/ml stock, dialyzed against saline to remove azide: 1.3 ml/kg Elafin was administered intravenously at 1.5 hr., 0.33 ml/kg was administered intratracheally (×2 sides) at 3 hr., and 0.66 ml/kg was administered intravenously at 4.5 hr.
Twenty NZW rabbits are divided into five (5) treatment groups with four (4) animals each. Lung injury is induced by two lavages with LPS in saline and one PMA treatment administered by lavage at 3 hr. Serine elastase inhibitor and Model surfactant mixture were separately and jointly tested to ascertain the degree to which these factors could reduce symptoms of inflammation. Treatments received by the different groups are as follows:
Group 1: The animals received two lavages with LPS in saline and one PMA treatment administered by lavage at 3 hr. A dosage of ^125I-BSA was given to the animals intravenously at 5.5 hr. and the animals were sacrificed at 6 hr.
Group 2: The animals received two lavages with LPS in saline, one PMA and Model surfactant mixture treatment administered by lavage at 3 hr. A dosage of ^125I-BSA was given to the animals intravenously at 5.5 hr. and the animals were sacrificed at 6 hr.
Group 3: The animals received two lavages with LPS in saline and one PMA treatment administered by lavage at 3 hr. […]

[4] = molecular target: T1, human neutrophil elastase (HNE); test: Inhibition of HNE by terminal lavage fluid of treated rabbits; assay type: biochemical; settings: 0.02 μg HNE with 50 μl terminal lavage fluid of one representative rabbit per group
Experimental: The presence of elastase inhibitor(s) (or the residual activity) in the terminal lavage fluids prepared as described in Example 8) was tested. 0.02 μg of human neutrophil elastase (HNE), was incubated with 50 μl of terminal lavage fluid of one representative rabbit from each experimental group (Groups 1-5). HNE activities are assayed using the colorimetric assay as described in Example 1. The assay results are presented graphically in FIG. 9.

[5] = tested on: rabbits injured with LPS and PMA; test: LPS/PMA lung injury in rabbits treated with anti-oxidant catalase; assay type: in vivo, rabbit; settings: for Albumin In BALF / BALF RBCs / Compliance / PaCO2 6 hr / PaO2 4.5 hr / PaO2 6 hr / Wet:Dry weight / Gross Pathology / Histologic Pathology: average ± SEM; for Wet:Dry weight: lung; for Gross Pathology / Histologic Pathology: on a scale of 0–4
Experimental: Procedures employed were similar to those used in the foregoing Examples. Lung injury is induced in rabbits (1.0-1.5 kg) by bronchoalveolar lavage (BAL) using 5 μg/ml bacterial LPS in saline at a dosage of 20 ml/kg. At 2.5 hrs after LPS administration, the rabbits received 20 ml/kg phorbol myristate acetate (PMA) by bronchoalveolar lavage. At 2.5 hours after LPS administration, animals in group 1 received the anti-oxidant catalase intratracheally. Animals in group 2 received catalase intratracheally and intravenously. Animals in group 3 received catalase intratracheally and intravenously, as well as 5mg/ml Model Surfactant Mixture (KL4) intratracheally. Animals in group 4 received no further treatment (control). The rabbits were ventilated at PIP […] PEEP 3 cm H2O pressure. The study was terminated at 6 hrs. Values in Tables 6 and 7 are averages+standard error of the mean (SEM).

[6] = catalase IT & IV (combination: plus 5mg/ml Model Surfactant Mixture IT)

Compound: CCc1c(CC(N)=O)c2cc(OCCCP(=O)(O)O)ccc2n1Cc1ccccc1 [LY311727]
- PLA2 activity (release of oleic acid from POPG) (Phospholipase A2 (PLA2)): decreasing amounts of PLA2 activity were observed

Compound: Elafin (AQEPVKGPVSTKPGSCPIILIRCAMLNPPNRCLKDTDCPGIKKCCEGSCGMACFVPQ) [serine elastase inhibitor, Elafin (Astra-Zeneca) 3 mg/ml stock, dialyzed against saline]
- HNE activity remaining ([1]; 0.02 μg HNE, Model surfactant mixture 2 mg/ml, serine elastase inhibitor 100 μg/ml): Significant inhibition
- HNE activity (OD410) versus log of amount of inhibitor ([1]; 0.125 μg HNE, increasing amounts of inhibitor, in vitro): HNE activity is inhibited in vitro
- Elastase activity in BAL fluids after added inhibitor [2]: inhibited in five out of the six BAL fluids; also recorded: In all cases, the elastase activity was inhibited
- number of RBCs in terminal lavage fluid ([3]; 6 hr post LPS/PMA injury): greater reduction in injury
- amount of protein in terminal lavage fluid ([3]; 6 hr post LPS/PMA injury, versus injured untreated group): failure of group 3, which received elastase inhibitor alone, to show a reduction in protein levels
- mean protein value in terminal lavage fluid, one aberrant animal excluded ([3]; Group 3, 6 hr post LPS/PMA injury): 1.72 mg/mL
- basement membrane damage (Western blot of basement membrane proteins in BAL fluid) ([3]; terminal lavage fluid, LPS/PMA injured rabbits): Amelioration of the damage in the basement membrane is observed
- inhibition of HNE activity by terminal lavage fluid [4]: highly significant

Compound: catalase
- lung function (overall) ([5]; LPS/PMA injured rabbits, study terminated at 6 hrs): significantly improve lung function
- Albumin In BALF [5, 6]: 0.50 ± 0.11
- BALF RBCs [5, 6]: 2.3 ± 1.2 ×10^3
- Compliance [5, 6]: 8.4 ± 0.3 ml at 12 cm H2O/Kg
- PaCO2 6 hr [5, 6]: 36 ± 5
- PaO2 4.5 hr [5, 6]: 129 ± 19
- PaO2 6 hr [5, 6]: 124 ± 22
- Wet:Dry weight [5, 6]: 8.0 ± 0.6
- Gross Pathology [5, 6]: 1.1 ± 0.4
- Histologic Pathology [5, 6]: 2.9 ± 0.8
- Albumin In BALF ([5]; catalase IT): 0.65 ± 0.16
- BALF RBCs ([5]; catalase IT): 6.1 ± 3.6 ×10^3
- Compliance ([5]; catalase IT): 10.1 ± 1.8 ml at 12 cm H2O/Kg
- PaCO2 6 hr ([5]; catalase IT): 40 ± 3
- PaO2 4.5 hr ([5]; catalase IT): 128 ± 15
- PaO2 6 hr ([5]; catalase IT): 119 ± 15
- Wet:Dry weight ([5]; catalase IT): 7.4 ± 0.4
- Gross Pathology ([5]; catalase IT): 1.6 ± 0.6
- Histologic Pathology ([5]; catalase IT): 2.7 ± 0.6
